Holding throughout (format): biochemical
The target of one assay is T1, recombinant human VAP-1 (Homo sapiens, UniProt Q16853).
T1 construct: purchased R&D systems
T1 sequence (Q16853 1-763): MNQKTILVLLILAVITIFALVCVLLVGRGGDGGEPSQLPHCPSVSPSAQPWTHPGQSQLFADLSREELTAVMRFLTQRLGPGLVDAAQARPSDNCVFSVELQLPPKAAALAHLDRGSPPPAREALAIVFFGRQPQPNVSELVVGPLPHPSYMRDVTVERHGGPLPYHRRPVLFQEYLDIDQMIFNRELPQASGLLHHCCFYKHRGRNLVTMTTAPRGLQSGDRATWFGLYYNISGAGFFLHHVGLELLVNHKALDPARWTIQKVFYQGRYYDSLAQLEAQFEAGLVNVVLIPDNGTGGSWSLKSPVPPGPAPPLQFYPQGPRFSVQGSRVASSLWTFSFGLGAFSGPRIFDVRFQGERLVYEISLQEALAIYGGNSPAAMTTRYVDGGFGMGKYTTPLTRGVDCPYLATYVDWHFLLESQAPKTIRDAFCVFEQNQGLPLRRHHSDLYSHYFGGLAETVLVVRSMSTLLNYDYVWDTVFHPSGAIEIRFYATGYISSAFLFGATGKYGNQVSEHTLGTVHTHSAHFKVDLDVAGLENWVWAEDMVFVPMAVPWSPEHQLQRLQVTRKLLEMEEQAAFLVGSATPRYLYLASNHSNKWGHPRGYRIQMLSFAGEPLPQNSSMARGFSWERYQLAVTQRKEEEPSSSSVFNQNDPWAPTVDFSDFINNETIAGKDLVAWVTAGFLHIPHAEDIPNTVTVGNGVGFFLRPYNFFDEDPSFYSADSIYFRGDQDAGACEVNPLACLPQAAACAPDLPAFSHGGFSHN
Briefly: Activity evaluation on recombinant human VAP-1 (Amplex Red/HRP-coupled hydrogen peroxide assay, benzylamine substrate). To be noted: read-out: Inhibitory Activity (IC50, nM) human VAP-1. The essentials: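 Hydrogen peroxide from benzylamine (1 mM) oxidation by human recombinant VAP-1 detected via HRP-coupled Amplex Red (200 uM) fluorescence, kinetic over 1–2 h. Enzyme and compound preincubated 30 min at 37 °C, pH 7.4 phosphate; 8-point dose response, signal-rate decrease versus DMSO control fitted to four-parameter logistic for IC50.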

For assay [1], the target named is T2, recombinant human MAO-A (monoamine oxidase-A) (Homo sapiens, UniProt P21397).
T2 construct: purchased Sigma-Aldrich
T2 sequence (P21397 1-527): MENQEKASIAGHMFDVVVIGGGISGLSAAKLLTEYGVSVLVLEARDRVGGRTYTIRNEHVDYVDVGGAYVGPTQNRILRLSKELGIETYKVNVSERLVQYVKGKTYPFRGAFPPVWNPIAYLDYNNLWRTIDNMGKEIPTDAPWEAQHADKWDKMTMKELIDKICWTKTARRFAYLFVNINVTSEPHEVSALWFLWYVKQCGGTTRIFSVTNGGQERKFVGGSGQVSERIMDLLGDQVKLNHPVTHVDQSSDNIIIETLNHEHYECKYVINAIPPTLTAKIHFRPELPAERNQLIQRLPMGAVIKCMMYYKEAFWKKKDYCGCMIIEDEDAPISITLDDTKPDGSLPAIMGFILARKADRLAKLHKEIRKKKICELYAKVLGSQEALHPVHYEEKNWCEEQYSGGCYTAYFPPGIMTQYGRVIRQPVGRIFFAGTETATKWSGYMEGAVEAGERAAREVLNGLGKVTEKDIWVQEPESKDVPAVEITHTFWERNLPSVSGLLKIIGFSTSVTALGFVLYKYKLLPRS
Description: Activity evaluation on recombinant human MAO-A (Amplex Red/HRP-coupled assay, 0.5 mM tyramine substrate). To be noted: read-out: Inhibitory Activity (IC50, nM) MAO-A. The essentials: (§1)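 Using an HRP-coupled Amplex Red readout (544/590 nm, kinetic over 1–2 h), IC50 values were fitted by 4-parameter logistic model to percent decrease in signal rate against DMSO control. Compounds (1:3 dilutions, 8 points, <1% DMSO) sat 30 min at 37 °C with enzyme in pH 7.4 phosphate buffer before substrate, 200 uM Amplex Red and HRP were added.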

The target of assay [2] is T3, recombinant human MAO-B (monoamine oxidase-B) (Homo sapiens, UniProt P27338).
T3 construct: purchased Sigma-Aldrich
T3 sequence (P27338 1-520): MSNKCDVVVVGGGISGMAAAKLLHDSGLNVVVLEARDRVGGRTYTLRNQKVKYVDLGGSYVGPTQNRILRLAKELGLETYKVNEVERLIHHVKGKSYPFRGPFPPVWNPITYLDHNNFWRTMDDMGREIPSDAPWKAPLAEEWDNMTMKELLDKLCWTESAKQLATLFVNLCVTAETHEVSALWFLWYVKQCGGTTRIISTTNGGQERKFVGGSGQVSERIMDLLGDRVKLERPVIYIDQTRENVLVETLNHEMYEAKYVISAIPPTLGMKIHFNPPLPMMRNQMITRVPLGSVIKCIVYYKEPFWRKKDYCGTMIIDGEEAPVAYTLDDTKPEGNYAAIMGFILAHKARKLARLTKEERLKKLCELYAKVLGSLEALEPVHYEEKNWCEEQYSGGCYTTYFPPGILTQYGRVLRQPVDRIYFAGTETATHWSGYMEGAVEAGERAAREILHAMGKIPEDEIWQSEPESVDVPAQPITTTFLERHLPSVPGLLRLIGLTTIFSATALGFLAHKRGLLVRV
Description: Activity evaluation on recombinant human MAO-B (Amplex Red/HRP-coupled assay, 1 mM benzylamine substrate). To be noted: read-out: Inhibitory Activity (IC50, nM) MAO-B. The essentials:
as §1

In assay [3] the target is T4, recombinant human DAO (diamine oxidase) (Homo sapiens, UniProt P19801).
T4 construct: purchased R&D systems
T4 sequence (P19801 20-751): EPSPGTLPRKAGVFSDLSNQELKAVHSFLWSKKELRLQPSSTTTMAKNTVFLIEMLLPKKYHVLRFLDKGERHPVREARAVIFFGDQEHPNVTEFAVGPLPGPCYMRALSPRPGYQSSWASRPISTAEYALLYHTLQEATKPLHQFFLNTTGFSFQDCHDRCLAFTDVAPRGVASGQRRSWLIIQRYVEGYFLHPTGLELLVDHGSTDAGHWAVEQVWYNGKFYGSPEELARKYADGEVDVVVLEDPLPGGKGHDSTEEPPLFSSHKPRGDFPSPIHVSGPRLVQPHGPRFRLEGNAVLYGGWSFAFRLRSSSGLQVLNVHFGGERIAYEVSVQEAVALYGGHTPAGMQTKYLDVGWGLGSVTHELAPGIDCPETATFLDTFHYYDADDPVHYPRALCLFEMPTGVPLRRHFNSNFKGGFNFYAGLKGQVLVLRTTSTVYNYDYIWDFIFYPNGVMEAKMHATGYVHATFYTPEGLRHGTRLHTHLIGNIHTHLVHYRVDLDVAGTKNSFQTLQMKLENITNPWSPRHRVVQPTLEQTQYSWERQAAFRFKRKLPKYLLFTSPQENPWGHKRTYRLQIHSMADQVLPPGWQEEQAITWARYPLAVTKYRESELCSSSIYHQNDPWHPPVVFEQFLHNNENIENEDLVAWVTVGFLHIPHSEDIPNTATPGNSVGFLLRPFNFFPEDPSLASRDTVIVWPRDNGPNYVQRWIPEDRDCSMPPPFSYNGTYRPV
Description: Activity evaluation on recombinant human DAO (Amplex Red/HRP-coupled assay, 1 mM putrescine substrate). Particulars: read-out: Inhibitory Activity (IC50, nM) DAO. The essentials:
as §1

Where [4] appears, read: recombinant human VAP-1, benzylamine substrate.
Where [5] appears, read: recombinant human VAP-1, 30 min preincubation at 37° C., 1 mM benzylamine.

The structures appear in SMILES notation. Where a name gives a salt, the structure may show the parent alone. Read-outs that look alike come from different tables or passages of the source. Where only a bound is given, the exact number is not on record here.

Consider `NCC(Cn1ncn(-c2cccc(-c3ccc(N4CCOCC4)nc3)n2)c1=O)=C(F)F` [Example 215, 2-[2-(aminomethyl)-3,3-difluoro-allyl]-4-[6-(6-morpholino-3-pyridyl)-2-pyridyl]-1,2,4-triazol-3-one Trifluoroacetate], for which the IC50 at recombinant human VAP-1 (setting [4]) was 0.7 nM; in assay [1] (0.5 mM tyramine substrate), greater than 100000 nM; in assay [2] (1 mM benzylamine substrate), greater than 100000 nM; in assay [3] (1 mM putrescine substrate), 280 nM.
With `NCC(Cn1ncn(Cc2ccccc2-c2ccc(N3CCNCC3)cc2)c1=O)=C(F)F` [Example 280, 2-[2-(aminomethyl)-3,3-difluoro-allyl]-4-[[2-(4-piperazin-1-ylphenyl)phenyl]methyl]-1,2,4-triazol-3-one Ditrifluoroacetate], the IC50 is 2380 nM at recombinant human VAP-1 (setting [4]), greater than 100000 nM in assay [1] (0.5 mM tyramine substrate), greater than 100000 nM in assay [2] (1 mM benzylamine substrate) and greater than 100000 nM in assay [3] (1 mM putrescine substrate).
For `NCC(Cn1ncn(-c2cccc(-c3ccc(N4CCNCC4)cc3)n2)c1=O)=C(F)F` [Example 47, 2-[2-(aminomethyl)-3,3-difluoro-allyl]-4-[6-(4-piperazin-1-ylphenyl)-2-pyridyl]-1,2,4-triazol-3-one Ditrifluoroacetate], the IC50 on recombinant human VAP-1 (setting [5]) is 3.5 nM; in assay [1] (0.5 mM tyramine) it was greater than 100000 nM; in assay [2] (1 mM benzylamine), greater than 100000 nM; in assay [3] (1 mM putrescine) it was 1900 nM.
As to `Cc1cc(-c2ccc(N3CCCC3=O)cc2)cnc1-n1cnn(CC(CN)=C(F)F)c1=O` [Example 230, 2-[2-(aminomethyl)-3,3-difluoro-allyl]-4-[3-methyl-5-[4-(2-oxopyrrolidin-1-yl)phenyl]-2-pyridyl]-1,2,4-triazol-3-one Trifluoroacetate], the IC50 was 0.7 nM on recombinant human VAP-1 (setting [4]), greater than 100000 nM in assay [1] (0.5 mM tyramine substrate), 77000 nM in assay [2] (1 mM benzylamine substrate) and 24000 nM in assay [3] (1 mM putrescine substrate).
For `Cc1cc(-c2ccccc2Cn2cnn(CC(CN)=C(F)F)c2=O)cc2c1NC(=O)CC2` [Example 283, 6-[2-[[1-[2-(aminomethyl)-3,3-difluoro-allyl]-5-oxo-1,2,4-triazol-4-yl]methyl]phenyl]-8-methyl-3,4-dihydro-1H-quinolin-2-one Trifluoroacetate], in that order: 154 nM, greater than 100000 nM, greater than 100000 nM and greater than 100000 nM.
For `NCC(Cn1ncn(-c2cnc(-c3ccc(C(F)(F)F)nc3)cn2)c1=O)=C(F)F` [Example 91, 2-[2-(aminomethyl)-3,3-difluoro-allyl]-4-[5-[6-(trifluoromethyl)-3-pyridyl]pyrazin-2-yl]-1,2,4-triazol-3-one Trifluoroacetate], the IC50 at recombinant human VAP-1 (setting [5]) was 0.5 nM; in assay [1] (0.5 mM tyramine) it was greater than 100000 nM; in assay [2] (1 mM benzylamine) it was 200 nM; in assay [3] (1 mM putrescine), 1 nM.
As to `NCC(Cn1ncn(Cc2ccc(-c3cnn(S(=O)(=O)C4CC4)c3)s2)c1=O)=C(F)F` [Example 294, 2-[2-(aminomethyl)-3,3-difluoro-allyl]-4-[[5-(1-cyclopropylsulfonylpyrazol-4-yl)-2-thienyl]methyl]-1,2,4-triazol-3-one Trifluoroacetate], the IC50 on recombinant human VAP-1 (setting [4]) was 2.9 nM; in assay [1] (0.5 mM tyramine substrate), greater than 100000 nM; in assay [2] (1 mM benzylamine substrate), greater than 100000 nM; in assay [3] (1 mM putrescine substrate), 5380 nM.
On to `NCC(Cn1ncn(-c2ccc(F)c(F)c2)c1=O)=C(F)F` [Example 3, 2-[2-(aminomethyl)-3,3-difluoro-allyl]-4-(3,4-difluorophenyl)-1,2,4-triazol-3-one Trifluoroacetate], for which the IC50 was 4 nM on recombinant human VAP-1 (setting [5]), greater than 100000 nM in assay [1] (0.5 mM tyramine), 25000 nM in assay [2] (1 mM benzylamine) and 19000 nM in assay [3] (1 mM putrescine).
With `NCC(Cn1ncn(Cc2ccc(-c3ccc4c(c3)CCC(=O)N4)s2)c1=O)=C(F)F` [Example 133, 6-[5-[[1-[2-(aminomethyl)-3,3-difluoro-allyl]-5-oxo-1,2,4-triazol-4-yl]methyl]-2-thienyl]-3,4-dihydro-1H-quinolin-2-one Trifluoroacetate], the IC50 on recombinant human VAP-1 (setting [5]) was 0.2 nM; in assay [1] (0.5 mM tyramine) it was greater than 100000 nM; in assay [2] (1 mM benzylamine) it was greater than 100000 nM; in assay [3] (1 mM putrescine), greater than 10000 nM.
Regarding `NCC(Cn1ncn(Cc2ccc(-c3cnc(N)nc3)s2)c1=O)=C(F)F` [Example 116, 2-[2-(aminomethyl)-3,3-difluoro-allyl]-4-[[5-(2-aminopyrimidin-5-yl)-2-thienyl]methyl]-1,2,4-triazol-3-one Trifluoroacetate], the IC50 at recombinant human VAP-1 (setting [5]) is 1.4 nM; in assay [1] (0.5 mM tyramine), greater than 100000 nM; in assay [2] (1 mM benzylamine) it was greater than 10000 nM; in assay [3] (1 mM putrescine), greater than 100000 nM.
Turning to `CS(=O)(=O)c1ccc(-c2ccc(Cn3cnn(CC(CN)=C(F)F)c3=O)s2)cc1` [Example 101, 2-[2-(aminomethyl)-3,3-difluoro-allyl]-4-[[5-(4-methylsulfonylphenyl)-2-thienyl]methyl]-1,2,4-triazol-3-one Trifluoroacetate], the IC50 is 0.3 nM on recombinant human VAP-1 (setting [5]), greater than 100000 nM in assay [1] (0.5 mM tyramine), 67000 nM in assay [2] (1 mM benzylamine) and 21000 nM in assay [3] (1 mM putrescine).

Source of the values: patent US11168073B2, “3,3-difluoroallylamines or salts thereof and pharmaceutical compositions comprising the same” (YUHAN CORPORATION, priority 2018, dated 2021).
